Values quoted from earlier work in patent publication US20060100282A1, “Novel diaminopropane-based metal chelators as antiviral agents” (Bioflexis, LLC, priority 2004, published 2006).

Tests used:
HIV-1 integrase (IN) [1] = biological target: T1, HIV-1 integrase (IN) (Human immunodeficiency virus type 1 group M subtype B, UniProt P12497); details: result in words
T1 construct: HIV-1 recombinant IN (HIV-1NL 4-3 Integrase, NIH AIDS Reagent program Catalog No: 2959); purchased NIH AIDS Reagent program 2959

HIV-1 integrase (IN) [2] = biological target: T1, HIV-1 integrase (IN); details: result in words; remark: listed apart in the source

Question: Which results are given for `O=C(O)C(=O)CC(=O)c1cccn1Cc1ccc(F)cc1` [Inhibitor 8]?
Answer: inhibition of 3′ processing (HIV-1 integrase (IN) [1]): do not inhibit 3′ processing; inhibition of strand transfer reaction (HIV-1 integrase (IN) [2]): inhibit strand transfer reaction

Question: Which “inhibition of 3′ processing” value (HIV-1 integrase (IN) [1]) does the source give for `O=C(O)C(=O)CC(=O)c1cc(OCc2ccccc2)cc(OCc2ccccc2)c1` [Inhibitor 6] here?
Answer: Its value is “do not inhibit 3′ processing”.

Question: And the “inhibition of strand transfer reaction” value (HIV-1 integrase (IN) [2])?
Answer: Its value is “inhibit strand transfer reaction”.
